Like-named read-outs stand apart in the source and are kept apart here.
Tests used:
circadian rhythms [1] = conditions: cellular reporter assays; cited from earlier work
circadian rhythms [2] = conditions: in vivo locomotor activity of a variety of species; cited from earlier work
[3] = ob/ob and diet-induced obese mouse, daily administration; cited from earlier work
[4] = conditioned place preference with cocaine and alcohol reinstatement; cited from earlier work
[5] = target: human recombinant GST cleaved CSNK1D (Homo sapiens (Human), UniProt P48730); experiment: Purified enzyme assay (ADP-Glo Kinase Assay); type: biochemical; conditions: 2 nM CSNK1D, peptide substrate 150 μM, ATP 20 μM, 45 minutes room temperature
Chain of human recombinant GST cleaved CSNK1D (P48730 whole entry): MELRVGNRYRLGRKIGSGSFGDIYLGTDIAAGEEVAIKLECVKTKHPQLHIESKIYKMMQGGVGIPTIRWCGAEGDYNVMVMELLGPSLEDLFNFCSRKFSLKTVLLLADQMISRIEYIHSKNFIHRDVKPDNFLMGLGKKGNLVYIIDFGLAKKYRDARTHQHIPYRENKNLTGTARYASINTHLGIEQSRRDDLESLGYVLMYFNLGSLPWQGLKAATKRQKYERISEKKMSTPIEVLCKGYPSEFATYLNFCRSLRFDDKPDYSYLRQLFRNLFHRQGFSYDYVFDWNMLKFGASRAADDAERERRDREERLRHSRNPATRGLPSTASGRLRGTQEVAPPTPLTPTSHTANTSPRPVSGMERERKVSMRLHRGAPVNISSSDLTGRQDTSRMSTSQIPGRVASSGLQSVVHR

[6] = target: human CSNK1D tagged with nanoluciferase (Homo sapiens (Human), UniProt P48730); experiment: Whole Cell nBRET CSNK1D Binding Assay; conditions: living CHO cells stably expressing human CSNK1D-nanoluciferase; NanoBret tracer 130 nM; 2 hours 37° C.; read-out: CSNK1D BRET IC50
Chain of human CSNK1D tagged with nanoluciferase (P48730 whole entry): as above
Procedure, shortened: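 Live CHO cells stably expressing nanoluciferase-tagged CSNK1D, seeded in serum-free OptiMEM, received compound dose-response plus NanoBRET tracer (130 nM) for 2 h at 37 °C.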

AC50 [5] [nM]	IC50 [6] [nM]	SMILES	other results
		Nc1nccc(-c2c(-c3ccc(F)cc3)ncn2C2CCN(Cc3ccon3)CC2)n1 [PF-5006739]	effect on circadian rhythms (circadian rhythms [1]): significantly lengthened circadian rhythms; effect on circadian rhythms (circadian rhythms [2]): significantly lengthened circadian rhythms; effect on glucose tolerance [3]: improve glucose tolerance
		Nc1nccc(-c2c(-c3ccc(F)cc3)ncn2C2CCCCC2)n1 [PF-670462]	effect on circadian rhythms (circadian rhythms [1]): significantly lengthened circadian rhythms; effect on circadian rhythms (circadian rhythms [2]): significantly lengthened circadian rhythms; efficacy in addiction/substance abuse models [4]: have shown efficacy
1040	> 10000	Cc1cc(-c2cn(C)nc2-c2ccncc2C)c2cn[nH]c2n1 [Example 136, 6-Methyl-4-[1-methyl-3-(3-methyl-4-pyridyl)pyrazol-4-yl]-1H-pyrazolo[3,4-b]pyridine]	
5	28	Cc1c(-c2ccnc3[nH]ccc23)c(-c2ccc(F)cn2)nn1C [Example 51, 4-(3-(5-Fluoropyridin-2-yl)-1,5-dimethyl-1H-pyrazol-4-yl)-1H-pyrrolo[2,3-b]pyridine]	
46	962	Cn1cc(-c2ccnc3ccc(F)nc23)c(-c2ccc(F)cn2)n1 [Example 127, 2-Fluoro-8-[3-(5-fluoro-2-pyridyl)-1-methyl-pyrazol-4-yl]-1,5-naphthyridine]	
7	186	Cn1cc(-c2ccnc3[nH]ccc23)c(-c2cccc(F)n2)n1 [Example 29, 4-[3-(6-Fluoro-2-pyridyl)-1-methyl-pyrazol-4-yl]-1H-pyrrolo[2,3-b]pyridine]	
28	491	COc1cc2c(-c3cn(C)nc3-c3ccc(F)cn3)ccnc2cc1F [Example 111, 7-Fluoro-4-[3-(5-fluoro-2-pyridyl)-1-methyl-pyrazol-4-yl]-6-methoxy-quinoline]	
41	468	Cn1cc(-c2ccnc3cc(OC(F)(F)F)ccc23)c(-c2ccc(F)cn2)n1 [Example 109, 4-[3-(5-Fluoro-2-pyridyl)-1-methyl-pyrazol-4-yl]-7-(trifluoromethoxy)quinoline]	
217	8620	Cc1cc(-c2cn(C)nc2-c2ccncc2Cl)c2cn[nH]c2n1 [Example 138, 4-[3-(3-Chloro-4-pyridyl)-1-methyl-pyrazol-4-yl]-6-methyl-1H-pyrazolo[3,4-b]pyridine]	
134	2770	COc1nc(-c2nn(C)cc2-c2cc(C)nc3[nH]ncc23)ccc1Cl [Example 42, 4-(3-(5-Chloro-6-methoxypyridin-2-yl)-1-methyl-1H-pyrazol-4-yl)-6-methyl-1H-pyrazolo[3,4-b]pyridine]	
346	> 10000	Cc1cnc(-c2nn(C)cc2-c2ccnc3[nH]ccc23)cn1 [Example 47, 4-[1-Methyl-3-(5-methylpyrazin-2-yl)pyrazol-4-yl]-1H-pyrrolo[2,3-b]pyridine]	
19	393	COCCn1cc(-c2cc(C)nc3[nH]ncc23)c(-c2ccc(F)cn2)n1 [Example 64, 4-(3-(5-Fluoropyridin-2-yl)-1-(2-methoxyethyl)-1H-pyrazol-4-yl)-6-methyl-1H-pyrazolo[3,4-b]pyridine]	
52	803	COc1ccc2ncc(F)c(-c3cn(C)nc3-c3ccc(F)cn3)c2n1 [Example 156, 7-Fluoro-8-[3-(5-fluoro-2-pyridyl)-1-methyl-pyrazol-4-yl]-2-methoxy-1,5-naphthyridine]	
100	1980	COc1cccc(-c2nn(C)cc2-c2cc(C)nc3[nH]ncc23)n1 [Example 34, 4-(3-(6-Methoxypyridin-2-yl)-1-methyl-1H-pyrazol-4-yl)-6-methyl-1H-pyrazolo[3,4-b]pyridine]	
111	4360	Cn1cc(-c2ccnc3[nH]ccc23)c(-c2nccn2C)n1 [Example 11, 4-(1-Methyl-3-(1-methyl-1H-imidazol-2-yl)-1H-pyrazol-4-yl)-1H-pyrrolo[2,3-b]pyridine]	
384	> 10000	Cn1cc(-c2ccnc3[nH]cc(CC4CCOC4)c23)c(-c2ccc(F)cn2)n1 (racemic) [Example 97, (R/S)-4-[3-(5-Fluoro-2-pyridyl)-1-methyl-pyrazol-4-yl]-3-(tetrahydrofuran-3-ylmethyl)-1H-pyrrolo[2,3-b]pyridine]	
37	955	Cn1cc(-c2ccnc3c2CCC3)c(-c2ccc(F)cn2)n1 [Example 2, 4-(3-(5-Fluoropyridin-2-yl)-1-methyl-1H-pyrazol-4-yl)-6,7-dihydro-5H-cyclopenta[b]pyridine]	
128	3250	Cc1cc(-c2cn(C)nc2-c2ccc(Cl)c(C)n2)c2cn[nH]c2n1 [Example 39, 4-(3-(5-Chloro-6-methylpyridin-2-yl)-1-methyl-1H-pyrazol-4-yl)-6-methyl-1H-pyrazolo[3,4-b]pyridine]	
13	227	Cn1nc(-c2ccc(F)cn2)c(-c2ccnc3[nH]ccc23)c1C1CCC1 [Example 52, 4-(5-Cyclobutyl-3-(5-fluoropyridin-2-yl)-1-methyl-1H-pyrazol-4-yl)-1H-pyrrolo[2,3-b]pyridine]	
166	4230	Cn1cc(-c2ccnc3c2CCCN3)c(-c2ccc(F)cn2)n1 [Example 114, 5-[3-(5-Fluoro-2-pyridyl)-1-methyl-pyrazol-4-yl]-1,2,3,4-tetrahydro-1,8-naphthyridine]	
15	78	Cn1cc(-c2ccnc3[nH]ccc23)c(-c2ncc(F)cc2F)n1 [Example 37, 4-[3-(3,5-Difluoro-2-pyridyl)-1-methyl-pyrazol-4-yl]-1H-pyrrolo[2,3-b]pyridine]	
2	32	Cn1cc(-c2cc(N)nc3[nH]ccc23)c(-c2ccc(F)cn2)n1 [Example 119, 4-[3-(5-Fluoro-2-pyridyl)-1-methyl-pyrazol-4-yl]-1H-pyrrolo[2,3-b]pyridin-6-amine]	
21	171	Fc1ccc(-c2nn(C(F)F)cc2-c2ccnc3[nH]ccc23)nc1 [Example 65, 4-[1-(Difluoromethyl)-3-(5-fluoro-2-pyridyl)pyrazol-4-yl]-1H-pyrrolo[2,3-b]pyridine]	
310	4480	Cc1ccc2nccc(-c3cn(C)nc3-c3ccc(F)cn3)c2n1 [Example 131, 8-[3-(5-Fluoro-2-pyridyl)-1-methyl-pyrazol-4-yl]-2-methyl-1,5-naphthyridine]	
16	144	Cn1cc(-c2ccnc3[nH]cc(C#N)c23)c(-c2ccc(F)cn2)n1 [Example 88, 4-[3-(5-Fluoro-2-pyridyl)-1-methyl-pyrazol-4-yl]-1H-pyrrolo[2,3-b]pyridine-3-carbonitrile]	

— patent publication US20230339900A1, “CASEIN KINASE 1 DELTA MODULATORS” (Janssen Pharmaceutica NV, priority 2020, published 2023)
